In patent publication US20090118285A1, “USE OF KCNQ-OPENERS FOR TREATING OR REDUCING THE SYMPTOMS OF SCHIZOPHRENIA” (H. Lundbeck A/S, priority 2006, published 2009):

Key:
[1] = system: sensitised behavioural response to amphetamine in mice; assay: Amphetamine sensitisation: sensitised behavioural response to amphetamine in mice; type: in vivo, mouse; details: amphetamine-pretreated mice, compound s.c. 30 min before D-amphetamine challenge 1.25 mg/kg s.c., 30 min test; for ED50: Mus musculus, read-out: Inhibition of amphetamine sensitised response. ED50 (±S.D.)
Experimental: Inhibition of the behavioral response to an acute amphetamine challenge in sensitised animals is proposed as a model for evaluating the antipsychotic or antimanic potential of compounds.
Subjects. Male NMRI mice (Charles River) weighing approx. 35 g are used. The animals were housed 6 mice pr cage in a 12-hr light/dark cycle under controlled conditions for regular in-door temperature (21±2° C.) and humidity (55±5%) with food and tap water available ad libitum. 12 mice are used pr experimental group.
Administration of compounds.

[2] = Inhibition of baseline motility in vehicle-pretreated, vehicle-challenged mice; details: NMRI, mouse, in vivo
[3] = system: amphetamine-induced hyperactivity in the rat; assay: Amphetamine challenge: d-amphetamine induced hyperactivity in rats; type: in vivo; details: test substance s.c. 30 min before d-amphetamine sulphate 0.5 mg/kg, motility 2 hours, read-out: Amphetamine antagonism ED50 ± std. dev.
From the text: D-amphetamine administration to rodents stimulates an increase in locomotor activity via mesolimbic dopamine receptors in the nucleus accumbens. While psychostimulant psychosis may not model all forms of schizophrenia, it may have applicability to paranoid schizophrenia and non-schizophrenic psychotic disorders (Krystal et al. pp. 214-224 in Neurobiology of Mental Illness ISBN 0-19-511265-2). It is believed that inhibition of the amphetamine-induced increase in locomotor activity is a reliable method for the evaluation of compounds with an antipsychotic potential (Ögren et al., European J. Pharmacol. 1984, 102, 459-464). In the following experiment, it was tested if the inhibition of spontaneous DA neurons in the mesolimbic circuit that was assessed above, could be translated into behavioral antipsychotic endpoint.
Subjects. Male Wistar rats (Taconic, Denmark) weighing 170-240 g are used. The animals were housed under a 12-hr light/dark cycle under controlled conditions for regular in-door temperature (21±2° C.) and humidity (55±5%) with food and tap water available ad libitum. Eight rats were used at each dose level and in the parallel control group receiving the vehicle to the test compound plus d-amphetamine and the group receiving vehicle injections only.

[4] = system: immobility in the mouse forced swim test; assay: Mouse forced swim test; type: in vivo; details: 30 min before the test, mice, last 3 min of 6 min swim, vehicle = 100
[5] = system: DA levels in the nucleus accumbens; assay: Microdialysis: DA levels in the nucleus accumbens of freely moving rats; type: in vivo, rat; details: 5 mg/kg s.c., freely moving rats
From the text: It is well-known that psychostimulants increase locomotor activity via an increase in extracellular DA levels in the nucleus accumbens, which is the terminal area of the mesolimbic DA projections (Guix et al., 1992, Neurosci. Lett., 138(1), 137-140; Moghaddam et al., 1989, Synapse, 4(2), 156-161). It is also known, that the antagonistic effect of antipsychotics on stimulant-induced hyperlocomotion is related to the effect of antipsychotics to inhibit the stimulated DA levels in the nucleus accumbens (Broderick et al., 2004, Prog. Neuropsychopharmacology and Biol. Psych., 28, 157-171). Thus, the nucleus accumbens is an accepted neuroanatomical site for testing reversal of positive symptoms of psychosis. […] The experiments were conducted such that the data may be associated with the behavioural data obtained above.
Subjects. Male Sprague-Dawley rats (Charles River), initially weighing 275-300 g, were used. The animals were housed under a 12-hr light/dark cycle under controlled conditions for regular in-door temperature (21±2° C.) and humidity (55±5%) with food and tap water available ad libitum.
Surgery. Animals were anaesthetized with hypnorm/dormicum (2 ml/kg s.c.) and intracerebral guide cannulas (CMA/12) were stereotaxically implanted, positioning the dialysis probe tip in the nucleus accumbens (co-ordinates: […] anterior to bregma, —1.2 mm lateral to bregma, 8.0 mm ventral to the dura). Anchor screws and acrylic cement was applied for fixation of the guide cannula. The body temperature of the animals was maintained at 37° C. by means of a rectal probe and a heating plate. The rats were allowed to recover from surgery for 2 days, housed singly in cages.
Experimental procedure. On the day of the experiment, a microdialysis probe (CMA/12, 0.5 mm diameter, 2 mm length) was inserted through the guide cannula of the conscious animal. The probes were connected to a microinjection pump via a dual channel swivel which allowed the animals unrestricted movements. Perfusion of the microdialysis probe with filtered Ringer solution (145 mM NaCl, 3 mM KCl, 1 mM MgCl2, 1.2 mM CaCl2) was maintained for the duration of the experiment at a constant flow rate of 1 μL/min. After 180 min of stabilisation, the experiments were initiated. Dialysates were collected every 20 min. After the experiments the rats were sacrificed by decapitation, their brains removed, frozen and sliced for probe placement verification.
Administration of compounds. […] Thirty min after the first administration dex-amphetamine sulphate (0.5 mg/kg s.c.) was administered.
Analysis of dialysate. The concentration of dopamine (DA) in the dialysates was assessed by means of HPLC with electrochemical detection. The dialysate constitutents were separated by reverse phase liquid chromatography (ODS 150×3 mm, […]). Mobile phase consisted of 90 mM NaH2PO4, 50 mM sodium citrate, 367 mg/l sodium 1-octanesulfonic acid, 50 μM EDTA and 8% acetonitrile (pH 4.0) at a flow rate of 0.5 ml/min. Electrochemical detection of DA was accomplished using a coulometric detector; potential set at E1=−75 mV and E2=300 mV (guard cell at 350 mV) (Coulochem II, ESA). The dialysate levels of DA in the three dialyse samples preceding the administration of compound were averaged and used as baseline level of DA (100%)

[6] = system: conditioned avoidance response in rats; assay: Conditioned avoidance response in rats; type: in vivo, rat; details: for % inhibition of avoidance. Relative to baseline.: rats; for Escape failures (effect on motor performance): rat, in vivo
From the text: In the conditioned avoidance response (CAR) model, rats are trained to respond to a stimulus within a fixed time by moving from one place to another in order to avoid a footshock. Antipsychotics selectively suppress the avoidance response within a certain dose-range without suppressing escape behavior elicited by the appearance of the footshock. The CAR model is considered to be a predictive and reliable animal model that is sensitive to compounds with an antipsychotic potential.
Subjects. Male Wistar rats (Taconic, Denmark) weighing 150 g at the beginning of the study are used. The rats are housed ii pairs and maintained on a 12 h light/dark cycle (lights on 06:00). The animals are fed once daily (approx. 6 pellets/rat) in order to keep the rats at 80% of their free-feeding weight. Water is available ad libitum. Temperature (21±1° C.) and relative humidity (55±5%) are automatically controlled.
Experimental procedure. Conditioned avoidance testing is conducted using four automated shuttle-boxes (ENV-010M, MED-Associates) each placed in a sound-attenuated chamber. Each box is divided into two compartments by a partition with an opening. The position of the animal and crossings from one compartment to the other are detected by two photocells placed on either side of the dividing wall. Upon presentation of the conditioned stimuli (CS), tone and light, the animals have 10 s to cross to the other compartment of the shuttle-box in order to turn the CS off (end the trial) and avoid the appearance of the unconditioned stimulus (UCS). If the rat remains in the same compartment for more than 10 s, the UCS is presented as 0.5 mA scrambled foot-shocks until escape is performed or 10 s in maximal duration. The following behavioural variables are evaluated: avoidance (response to CS within 10 s); escape (response to CS+UCS); escape failures (failure to respond); intertrial crosses and locomotor activity. The rats are habituated to the shuttle-box 3 min before each test session. During training each test session consists of 30 trials with intertrial intervals varying randomly between 20 s and 30 s. Training is carried until the rats display an avoidance of 80% or more, on 3 consecutive days. A test is preceded by a pre-test the day before giving rise to a baseline value for each animal, thus the animals serve as their own control. Seven to eight rats are used at each dose level. A parallel control group receiving the vehicle of the test compound is also included.
Administration of compound.
Statistical analyses. The effects of compounds on avoidance and escape failure behaviours were statistically evaluated by means of a two-way repeated measures ANOVA followed by post hoc comparisons (Student-Newman-Keuls Method) when appropriate. P-levels <0.05 were considered statistically significant.

[7] = system: DA levels in the nucleus accumbens; assay: Microdialysis: DA levels in the nucleus accumbens of freely moving rats; type: in vivo, rat; details: no amphetamine provocation, data not shown
[8] = Motility inhibition (sedative properties) without d-amphetamine, rat; details: Wistar, in vivo, sc
[9] = system: baseline motility in mice; assay: Inhibition of baseline motility in vehicle-pretreated, vehicle-challenged mice; details: vehicle-pretreated, vehicle-challenged mice, compound s.c.
in vivo = details: Wistar, rat, sc
[10] = 2.5 mg/kg s.c. 30 min before the test
[11] = 5 mg/kg s.c. 30 min before the test

For `CCCCCC(=O)Nc1c(F)cc(N2CCOCC2)cc1F` [Hexanoic acid (2,6-difluoro-4-morpholin-4-yl-phenyl)-amide], the ED50 [1] was 2.4 mg/kg and the ED50 at 30 min ([2]; subcutaneous) was > 5 mg/kg.

For `COc1cc(N2CCOCC2)cc(C)c1NC(=O)CC1CCCC1` [2-Cyclopentyl-N-(2-methoxy-6-methyl-4-morpholin-4-yl-phenyl)-acetamide], the ED50 [1] was 1.7 mg/kg and the ED50 at 30 min ([2]; subcutaneous) was 3 mg/kg.

`Cc1cc2c(s1)Nc1ccccc1N=C2N1CCN(C)CC1` [Olanzapine] gave an ED50 [3] of 0.21 mg/kg, an Immobility in % ([4]; dose 0.31 mg/kg) of 96% and an Immobility in % ([4]; dose 1.3 mg/kg) of 95%.

`CCOC(=O)Nc1ccc(NCc2c(C)cc(C)cc2C)cc1N` [[2-Amino-4-(2,4,6-trimethyl-benzylamino)-phenyl]-carbamic acid ethyl ester] gave an ED50 at 30 min [2] of 4.3 mg/kg.

For `Cc1nc(N2CCOCC2)nc(C)c1NC(=O)CC1CCCC1` [2-Cyclopentyl-N-(4,6-dimethyl-2-morpholin-4-yl-pyrimidin-5-yl)-acetamide], the ED50 [1] was 0.9 mg/kg and the ED50 at 30 min ([2]; subcutaneous) was 2.5 mg/kg.

`CCC(=O)Nc1c(Br)cc(N2CCOCC2)cc1C(F)(F)F` [N-(2-Bromo-4-morpholin-4-yl-6-trifluoromethyl-phenyl)-propionamide] showed an ED50 [1] of 3.1 mg/kg and an ED50 at 30 min ([2]; subcutaneous) of 6 mg/kg.

For `Cc1cc(N2CCOCC2)cc(C)c1NC(=O)CC1CCCC1`, the ED50 [3] was 2.6 mg/kg, the “DA level in the nucleus accumbens, amphetamine + compound” value (“DA level … amphetamine + compound” below) ([5]; time 0 min) was 99 ± 4 % of baseline and the “DA level … amphetamine + compound” value ([5]; time −40 min) was 95 ± 6 % of baseline. For the same compound, the ED50 [1] was 1.2 mg/kg, the “% inhibition of avoidance. Relative to baseline.” value [6, 10] was 5% and the “% inhibition of avoidance. Relative to baseline.” value [6, 11] was 65%. For the same compound, the “Escape failures (effect on motor performance)” value [6] was “None of the tested doses caused any incidences of escape failures”, the “Effect on basal extracellular DA level in the nucleus accumbens” value [7] was “merely provoked levels of DA were affected, but not basal levels of DA” and the ED50 at 2 h [8] was 5.3 mg/kg. It also gave an ED50 at 30 min ([2]; subcutaneous) of 2.2 mg/kg.

In the case of `Cc1nc(N2CCOCC2)nc(C)c1NC(=O)Cc1ccc(F)cc1` [N-(4,6-Dimethyl-2-morpholin-4-yl-pyrimidin-5-yl)-2-(4-fluoro-henyl)-acetamide], the “Inhibition of amphetamine sensitised response. ED50 (±S.D.)” value [1] is reported as 0.4 mg/kg and the “Inhibition of baseline motility. ED50 (±S.D.)” value [9] is reported as 2.2 mg/kg.

In the case of `[Li]` [Lithium-chloride], the ED50 [3] is reported as 12 mg/kg and the ED50 at 2 h (in vivo) is reported as > 40 mg/kg.

With `Cc1cc(N2CCOCC2)nc(C)c1NC(=O)CC(C)(C)C` [N-(2,4-Dimethyl-6-morpholin-4-yl-pyridin-3-yl)-3,3-dimethyl-butyramide] the ED50 [1] was 1.4 mg/kg and the ED50 at 30 min ([2]; subcutaneous) was 3.1 mg/kg.

In the case of `Cc1cc(N2CCOCC2)cc(C)c1NC(=O)CC(C)(C)C`, the ED50 [3] is reported as 2.1 mg/kg, the “DA level … amphetamine + compound” value ([5]; time 0 min) is reported as 91 ± 4 % of baseline and the “DA level … amphetamine + compound” value ([5]; time −20 min) is reported as 100 ± 3 % of baseline. The ED50 [1] was 1.6 mg/kg, the “% inhibition of avoidance. Relative to baseline.” value [6, 10] was 1% and the “% inhibition of avoidance. Relative to baseline.” value [6, 11] was 71%. For the same compound, the “Escape failures (effect on motor performance)” value [6] was “None of the tested doses caused any incidences of escape failures”, the “Effect on basal extracellular DA level in the nucleus accumbens” value [7] was “merely provoked levels of DA were affected, but not basal levels of DA” and the ED50 at 2 h [8] was 7.6 mg/kg. The ED50 at 30 min ([2]; subcutaneous) was > 2.5 mg/kg.
